Measurements as given in Sander's compilation of Henry's law constants (doi:10.1111/j.1365-2621.1980.tb00916.x).

Assay: Henry solubility constant Hcp at 298.15 K (mol/(m3 Pa))
Settings: reference: Mazza (1980)

Henry solubility constant Hcp | SMILES
3.7 | CCCO [1-propanol]
0.0037 | Cc1ccc(C)s1 [2,5-dimethylthiophene]
2.1 | CC(C)O [2-propanol]
0.0071 | C=CCSCC=C [3,3'-thiobis-1-propene]
0.005 | C=CCSC [allyl methyl sulfide]
0.018 | CCCSSCCC [dipropyl disulfide]
6.2 | CCO [ethanol]
0.0043 | CCCSC [methyl propyl sulfide]

SMILES | Henry solubility constant Hcp
CCCS [1-propanethiol] | 0.0009
C=CCSSCC=C [4,5-dithia-1,7-octadiene] | 0.0075
